This assay is described as follows: Inhibition of SARS-CoV-2 3CL protease Q189A mutant by FRET assay. The arrangement: species or system Severe acute respiratory syndrome coronavirus 2.

The values that follow come from ChEMBL document CHEMBL5257019, “An Overview of Severe Acute Respiratory Syndrome-Coronavirus (SARS-CoV) 3CL Protease Inhibitors: Peptidomimetics and Small Molecule Chemotherapy” (J Med Chem, 2016).

As a reminder, the IC50 is the concentration that gives 50% inhibition. A low value points to greater potency. For `O=c1c(O[C@@H]2OC(O)[C@@H](O)[C@H](O)[C@@H]2O)c(-c2ccc(O)c(O)c2)oc2cc(O)cc(O)c12` (stereo partly specified), half-maximal inhibition (IC50) was put at 24.1 µM.
